Results published in ChEMBL document CHEMBL1201862, “PubChem BioAssay data set” (2004).
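Step 1: Grow cells in 96-well plates. Step 2: Expose to compound for 48 hours at 5 concentrations. Step 3: Interpolate endpoints linearly; if unreached, use highest concentration. GI50 marks 50% less growth.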 Activity calls are given as the source filed them. No stated cut-off is given here; in the data, active = GI50 up to about 1.1 µM and inactive = higher.

Assays:
Experiment in all cases: NCI tumour cell line growth inhibition, 48 h
A498 = system: A498
SK-MEL-2 = system: SK-MEL-2
OVCAR-4 = system: OVCAR-4
SN12C = system: SN12C
SK-MEL-5 = system: SK-MEL-5
EKVX = system: EKVX
OVCAR-8 = system: OVCAR-8
HCT-15 = system: HCT-15
MCF7 = system: MCF7
OVCAR-3 = system: OVCAR-3
IGROV-1 = system: IGROV-1
HOP-92 = system: HOP-92
UACC-62 = system: UACC-62
HOP-62 = system: HOP-62
RXF 393 = system: RXF 393
OVCAR-5 = system: OVCAR-5
CAKI-1 = system: CAKI-1
SNB-75 = system: SNB-75
NCI-H522 = system: NCI-H522
HCT-116 = system: HCT-116

SMILES | GI50 (A498) | GI50 (SK-MEL-2) | GI50 (OVCAR-4) | GI50 (SN12C) | GI50 (SK-MEL-5) | GI50 (EKVX) | GI50 (OVCAR-8) | GI50 (HCT-15) [µM] | GI50 (MCF7) | GI50 (OVCAR-3) | GI50 (IGROV-1) | GI50 (HOP-92) | GI50 (UACC-62) | GI50 (HOP-62) | GI50 (RXF 393) | GI50 (OVCAR-5) | GI50 (CAKI-1) | GI50 (SNB-75) | GI50 (NCI-H522) | GI50 (HCT-116)
Fc1ccc(C(OCCN2CCN(CCCc3ccccc3)CC2)c2ccc(F)cc2)cc1 | 6.97 µM (inactive) | 3.75 µM (inactive) | 4.15 µM (inactive) | 4.11 µM (inactive) | 3.34 µM (inactive) | 4.17 µM (inactive) | 3.92 µM (inactive) | 3.45 | 4.59 µM (inactive) | 4.15 µM (inactive) | 10.4 µM (inactive) | 3.5 µM (inactive) | 9.08 µM (inactive) | 5.32 µM (inactive) | 3.67 µM (inactive) | 4.5 µM (inactive) | 4.06 µM (inactive) | 4.8 µM (inactive) | 3.48 µM (inactive) | –
C[C@]12CCC(=O)C=C1CC[C@@H]1[C@@H]2[C@@H](O)C[C@@]2(C)[C@H]1CC[C@]2(O)C(=O)COC(=O)C1CCCC1 | > 100 µM (inactive) | > 100 µM (inactive) | > 100 µM (inactive) | > 100 µM (inactive) | > 100 µM (inactive) | 32.7 µM (inactive) | > 100 µM (inactive) | > 100 | > 100 µM (inactive) | > 100 µM (inactive) | > 100 µM (inactive) | > 100 µM (inactive) | > 100 µM (inactive) | > 100 µM (inactive) | > 100 µM (inactive) | > 100 µM (inactive) | > 100 µM (inactive) | > 100 µM (inactive) | > 100 µM (inactive) | > 100 µM (inactive)
Nc1nc(Cl)cc(NCC2(CO)CC(c3ccccc3)C2)n1 (stereo unspecified) | 22.8 µM (inactive) | 62.4 µM (inactive) | 24.4 µM (inactive) | 13.8 µM (inactive) | 9.12 µM (inactive) | 5.41 µM (inactive) | 34.7 µM (inactive) | 53 | 22.9 µM (inactive) | > 100 µM (inactive) | > 100 µM (inactive) | 22.3 µM (inactive) | 32.4 µM (inactive) | > 100 µM (inactive) | 58.9 µM (inactive) | > 100 µM (inactive) | > 100 µM (inactive) | 18.1 µM (inactive) | 37.9 µM (inactive) | 11.4 µM (inactive)
S=c1c2nc[nH]c2ncn1CCSC1=NC=NC2=NC=NC21 (stereo unspecified) | > 100 µM (inactive) | > 100 µM (inactive) | > 87.3 µM (inactive) | > 100 µM (inactive) | > 100 µM (inactive) | > 100 µM (inactive) | > 100 µM (inactive) | > 100 | > 100 µM (inactive) | 57.1 µM (inactive) | > 100 µM (inactive) | > 80 µM (inactive) | 79.8 µM (inactive) | 66.1 µM (inactive) | > 100 µM (inactive) | > 100 µM (inactive) | > 100 µM (inactive) | > 66.1 µM (inactive) | > 73.6 µM (inactive) | > 100 µM (inactive)
O=c1ccn(C2OC(COC3CCCCO3)C(OC3CCCCO3)C2OC2CCCCO2)c(=O)n1-c1ccccc1 (stereo unspecified) | > 100 µM (inactive) | > 100 µM (inactive) | > 100 µM (inactive) | > 100 µM (inactive) | > 100 µM (inactive) | > 100 µM (inactive) | > 100 µM (inactive) | > 100 | > 100 µM (inactive) | > 100 µM (inactive) | > 100 µM (inactive) | > 100 µM (inactive) | – | > 100 µM (inactive) | > 100 µM (inactive) | > 100 µM (inactive) | > 100 µM (inactive) | > 100 µM (inactive) | > 100 µM (inactive) | > 100 µM (inactive)
COc1cc(/C=C/C(=O)O)ccc1C(=O)OCc1ccccc1 | > 100 µM (inactive) | > 100 µM (inactive) | > 100 µM (inactive) | > 100 µM (inactive) | > 100 µM (inactive) | > 100 µM (inactive) | > 100 µM (inactive) | > 100 | > 100 µM (inactive) | > 100 µM (inactive) | > 100 µM (inactive) | > 100 µM (inactive) | > 100 µM (inactive) | > 100 µM (inactive) | > 100 µM (inactive) | > 100 µM (inactive) | – | > 100 µM (inactive) | > 100 µM (inactive) | > 100 µM (inactive)
O=C(CCC(=O)OCC1OC(O)(CC2OC(CO)C(O)C(O)C2O)C(O)C1O)OCc1ccccc1 (stereo unspecified) | > 100 µM (inactive) | > 100 µM (inactive) | > 100 µM (inactive) | > 100 µM (inactive) | > 100 µM (inactive) | > 100 µM (inactive) | > 100 µM (inactive) | > 100 | > 100 µM (inactive) | > 100 µM (inactive) | > 100 µM (inactive) | > 100 µM (inactive) | > 100 µM (inactive) | > 100 µM (inactive) | > 100 µM (inactive) | > 100 µM (inactive) | > 100 µM (inactive) | > 100 µM (inactive) | > 100 µM (inactive) | > 100 µM (inactive)
COC(=O)c1cc2c3c(cc(N(C)C)c2[nH]1)N(C(=O)c1cc2cc(OC)c(OC)c(OC)c2[nH]1)CC3CCl (stereo unspecified) | 0.00443 µM (active) | 0.00762 µM (active) | 0.00745 µM (active) | 0.0114 µM (active) | 0.00333 µM (active) | 0.0146 µM (active) | – | 0.00468 | < 0.0025 µM (active) | 0.00396 µM (active) | < 0.0025 µM (active) | 0.0041 µM (active) | 0.00558 µM (active) | 0.00262 µM (active) | < 0.0025 µM (active) | 0.00776 µM (active) | < 0.0025 µM (active) | 0.0042 µM (active) | 0.00279 µM (active) | < 0.0025 µM (active)
O=C1O/C(=C\c2ccc(O)cc2)C(c2ccc(O)c(Cl)c2)=C1Br | 16.4 µM (inactive) | 14 µM (inactive) | 11.4 µM (inactive) | 15.6 µM (inactive) | 12.7 µM (inactive) | 14.1 µM (inactive) | 17.6 µM (inactive) | 12.9 | 16.7 µM (inactive) | 7 µM (inactive) | 12 µM (inactive) | 12.9 µM (inactive) | 13.7 µM (inactive) | 14.2 µM (inactive) | 18.6 µM (inactive) | 18.2 µM (inactive) | 15.4 µM (inactive) | – | 6.76 µM (inactive) | 11.5 µM (inactive)
CCOC(=O)C(NC(=O)c1cccc(Cl)c1)(Nc1ccc(S(=O)(=O)Nc2cc(C)on2)cc1)C(F)(F)F (stereo unspecified) | > 100 µM (inactive) | > 100 µM (inactive) | > 100 µM (inactive) | > 100 µM (inactive) | > 100 µM (inactive) | > 100 µM (inactive) | > 100 µM (inactive) | > 100 | > 100 µM (inactive) | > 100 µM (inactive) | > 100 µM (inactive) | > 100 µM (inactive) | – | > 100 µM (inactive) | 42.5 µM (inactive) | > 100 µM (inactive) | > 100 µM (inactive) | > 100 µM (inactive) | > 100 µM (inactive) | > 100 µM (inactive)
CCCCCCCCCCCCOCCOCCOCCOCCOCCOCC(=O)NC(Cc1ccccc1)C(=O)Oc1ccc([N+](=O)[O-])cc1 (stereo unspecified) | 39.6 µM (inactive) | 23.8 µM (inactive) | 40.9 µM (inactive) | – | 31.8 µM (inactive) | 61.2 µM (inactive) | 44.5 µM (inactive) | 37 | 38.1 µM (inactive) | 22.9 µM (inactive) | 44.3 µM (inactive) | 26.7 µM (inactive) | 21.8 µM (inactive) | 40.9 µM (inactive) | 31.8 µM (inactive) | > 100 µM (inactive) | > 100 µM (inactive) | 27 µM (inactive) | 29.9 µM (inactive) | 31.6 µM (inactive)
C=C1CC[C@](C)(O)[C@@]2(C)CC[C@H]3C(=C(C)C)C(=O)C[C@]3(C)C[C@H]12 | > 50 µM (inactive) | > 50 µM (inactive) | > 50 µM (inactive) | > 50 µM (inactive) | 22.1 µM (inactive) | > 50 µM (inactive) | > 50 µM (inactive) | 14.9 | 28.4 µM (inactive) | 29.9 µM (inactive) | 14.7 µM (inactive) | > 50 µM (inactive) | 16.5 µM (inactive) | > 50 µM (inactive) | 18.2 µM (inactive) | > 50 µM (inactive) | 22.4 µM (inactive) | 29 µM (inactive) | 14.3 µM (inactive) | 14.8 µM (inactive)
Nc1cc(O)c2cc(/N=N/c3ccc(/N=N/c4ccc(/N=N/c5ccc6cc(S(=O)(=O)O)cc(S(=O)(=O)O)c6c5)c5ccccc45)c4cc(S(=O)(=O)O)ccc34)c(S(=O)(=O)O)cc2c1 | > 100 µM (inactive) | > 100 µM (inactive) | > 100 µM (inactive) | > 100 µM (inactive) | > 100 µM (inactive) | > 100 µM (inactive) | > 100 µM (inactive) | 42.4 | > 100 µM (inactive) | 67.6 µM (inactive) | > 100 µM (inactive) | 32.2 µM (inactive) | > 100 µM (inactive) | > 100 µM (inactive) | > 100 µM (inactive) | > 100 µM (inactive) | – | 49.1 µM (inactive) | 98.6 µM (inactive) | > 100 µM (inactive)
COc1cc(C2c3cc4c(cc3[C@@H](Oc3ccc(F)cc3)C3COC(=O)[C@H]23)OCO4)cc(OC)c1O (stereo partly specified) | 0.236 µM (active) | – | 6.79 µM (inactive) | 3.19 µM (inactive) | 0.527 µM (active) | > 43.8 µM (inactive) | 0.447 µM (active) | 0.364 | 0.434 µM (active) | 1.75 µM (inactive) | 1.32 µM (inactive) | 1.2 µM (inactive) | 0.518 µM (active) | 0.267 µM (active) | 0.234 µM (active) | > 100 µM (inactive) | 0.456 µM (active) | 0.287 µM (active) | 0.217 µM (active) | 0.347 µM (active)
